# Where “and” joins values, the source holds several entries; their conditions need not be identical. Equal entries are not always repeated.
# Legend:
# Test in all cases: PamChip tyrosine kinase microarray
# Assay type in all cases: biochemical
# Settings in all cases: 0.1 µM, HL60 lysate
# FRK (P42685) = target: T1, FRK (P42685) (Homo sapiens, UniProt P42685)
# T1 construct: purchased PamGene (PamChip PTK array, Upstream Kinase Analysis)
# In short: (§1)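 HL60 (AML) cell lysate was spiked with compound at 0.001, 0.01, 0.1, 1, 10 and 50 µM, or 2% v/v DMSO as control, then profiled in technical replicates on a tyrosine kinase peptide array of 196 phosphosites. Kinase activity was inferred from peptide-set changes using an upstream kinase tool.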
# Fgr (P09769) = target: T2, Fgr (P09769) (Homo sapiens, UniProt P09769)
# T2 construct: purchased PamGene (PamChip PTK array, Upstream Kinase Analysis)
# T2 sequence (P09769 whole entry): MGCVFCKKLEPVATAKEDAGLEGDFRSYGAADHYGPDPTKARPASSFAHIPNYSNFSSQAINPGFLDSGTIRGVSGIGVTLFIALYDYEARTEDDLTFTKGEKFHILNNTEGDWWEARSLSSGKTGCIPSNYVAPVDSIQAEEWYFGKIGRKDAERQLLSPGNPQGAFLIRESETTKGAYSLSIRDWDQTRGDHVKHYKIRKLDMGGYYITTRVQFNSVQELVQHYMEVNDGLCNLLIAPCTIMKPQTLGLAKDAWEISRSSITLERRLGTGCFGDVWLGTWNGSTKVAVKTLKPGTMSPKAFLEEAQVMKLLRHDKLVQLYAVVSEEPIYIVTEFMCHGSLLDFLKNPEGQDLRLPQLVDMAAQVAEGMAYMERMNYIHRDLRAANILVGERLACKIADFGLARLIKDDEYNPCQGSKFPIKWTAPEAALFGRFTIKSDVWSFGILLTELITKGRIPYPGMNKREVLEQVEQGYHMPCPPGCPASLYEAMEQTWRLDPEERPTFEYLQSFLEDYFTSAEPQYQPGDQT
# In short: as §1
# DDR1 (Q08345) = target: T3, DDR1 (Q08345) (Homo sapiens, UniProt Q08345)
# T3 construct: purchased PamGene (PamChip PTK array, Upstream Kinase Analysis)
# T3 sequence (Q08345 19-913): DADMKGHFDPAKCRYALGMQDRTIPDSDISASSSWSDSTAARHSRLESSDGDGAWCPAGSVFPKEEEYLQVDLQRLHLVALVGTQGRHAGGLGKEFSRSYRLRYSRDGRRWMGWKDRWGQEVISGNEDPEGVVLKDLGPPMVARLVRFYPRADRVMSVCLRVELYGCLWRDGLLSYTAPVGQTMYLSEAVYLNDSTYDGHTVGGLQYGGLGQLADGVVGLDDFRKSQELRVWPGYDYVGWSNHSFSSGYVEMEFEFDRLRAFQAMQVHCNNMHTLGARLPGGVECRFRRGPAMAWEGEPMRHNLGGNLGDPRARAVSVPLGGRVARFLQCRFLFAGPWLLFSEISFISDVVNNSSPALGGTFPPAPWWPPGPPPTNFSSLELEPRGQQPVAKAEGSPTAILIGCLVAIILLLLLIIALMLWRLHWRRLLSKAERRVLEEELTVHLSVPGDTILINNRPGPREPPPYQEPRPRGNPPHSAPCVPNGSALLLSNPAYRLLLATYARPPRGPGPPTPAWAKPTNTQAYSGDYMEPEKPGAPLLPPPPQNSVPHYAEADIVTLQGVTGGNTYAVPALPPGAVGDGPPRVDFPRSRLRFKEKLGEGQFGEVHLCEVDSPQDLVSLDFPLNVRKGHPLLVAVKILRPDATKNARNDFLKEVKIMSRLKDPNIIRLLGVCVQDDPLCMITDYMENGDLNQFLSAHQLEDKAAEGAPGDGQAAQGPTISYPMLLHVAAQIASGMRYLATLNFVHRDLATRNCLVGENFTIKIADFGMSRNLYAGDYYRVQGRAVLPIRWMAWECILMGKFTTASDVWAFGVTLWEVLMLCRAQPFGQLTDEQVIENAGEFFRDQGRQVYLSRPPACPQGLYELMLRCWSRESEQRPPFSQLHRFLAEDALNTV
# In short: as §1
# Ron (Q04912) = target: T4, Ron (Q04912) (Homo sapiens, UniProt Q04912)
# T4 construct: purchased PamGene (PamChip PTK array, Upstream Kinase Analysis)
# T4 sequence (Q04912 25-1400): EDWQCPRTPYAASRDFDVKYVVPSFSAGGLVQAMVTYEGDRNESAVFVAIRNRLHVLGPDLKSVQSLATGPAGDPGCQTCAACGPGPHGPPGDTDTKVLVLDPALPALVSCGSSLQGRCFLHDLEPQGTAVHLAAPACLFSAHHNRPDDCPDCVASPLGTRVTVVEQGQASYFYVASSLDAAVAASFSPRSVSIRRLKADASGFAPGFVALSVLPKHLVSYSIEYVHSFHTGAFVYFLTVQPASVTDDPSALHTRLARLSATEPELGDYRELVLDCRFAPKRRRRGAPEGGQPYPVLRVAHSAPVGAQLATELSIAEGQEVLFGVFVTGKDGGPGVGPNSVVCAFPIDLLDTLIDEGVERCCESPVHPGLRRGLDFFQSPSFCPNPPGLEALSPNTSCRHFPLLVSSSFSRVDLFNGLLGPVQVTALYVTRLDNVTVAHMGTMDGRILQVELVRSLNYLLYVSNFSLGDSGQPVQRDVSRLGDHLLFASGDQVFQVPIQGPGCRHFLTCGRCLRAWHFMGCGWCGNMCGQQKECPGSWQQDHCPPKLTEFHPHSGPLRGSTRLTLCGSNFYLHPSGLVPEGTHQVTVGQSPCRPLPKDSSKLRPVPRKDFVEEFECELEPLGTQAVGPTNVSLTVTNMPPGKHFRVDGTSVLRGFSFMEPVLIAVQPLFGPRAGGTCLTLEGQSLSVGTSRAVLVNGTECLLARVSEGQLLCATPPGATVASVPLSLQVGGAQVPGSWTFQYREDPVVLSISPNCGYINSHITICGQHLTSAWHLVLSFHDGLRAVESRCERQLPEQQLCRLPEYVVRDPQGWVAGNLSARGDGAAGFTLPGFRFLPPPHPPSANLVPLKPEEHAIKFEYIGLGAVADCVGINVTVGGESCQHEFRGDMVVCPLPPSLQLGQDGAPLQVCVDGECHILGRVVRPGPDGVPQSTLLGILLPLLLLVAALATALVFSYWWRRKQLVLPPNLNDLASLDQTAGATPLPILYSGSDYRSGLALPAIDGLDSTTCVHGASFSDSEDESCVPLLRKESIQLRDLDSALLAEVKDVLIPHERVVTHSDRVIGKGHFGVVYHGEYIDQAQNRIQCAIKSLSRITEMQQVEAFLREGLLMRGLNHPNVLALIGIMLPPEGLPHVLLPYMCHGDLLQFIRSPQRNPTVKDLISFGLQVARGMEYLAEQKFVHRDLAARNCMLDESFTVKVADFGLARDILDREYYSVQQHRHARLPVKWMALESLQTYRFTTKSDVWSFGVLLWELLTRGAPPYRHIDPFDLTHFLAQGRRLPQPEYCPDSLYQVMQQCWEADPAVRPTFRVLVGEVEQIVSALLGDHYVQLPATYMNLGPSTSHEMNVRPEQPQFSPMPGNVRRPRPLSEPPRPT
# In short: as §1
# Abl (P00519) = target: T5, Abl (P00519) (Homo sapiens, UniProt P00519)
# T5 construct: purchased PamGene (PamChip PTK array, Upstream Kinase Analysis)
# T5 sequence (P00519 whole entry): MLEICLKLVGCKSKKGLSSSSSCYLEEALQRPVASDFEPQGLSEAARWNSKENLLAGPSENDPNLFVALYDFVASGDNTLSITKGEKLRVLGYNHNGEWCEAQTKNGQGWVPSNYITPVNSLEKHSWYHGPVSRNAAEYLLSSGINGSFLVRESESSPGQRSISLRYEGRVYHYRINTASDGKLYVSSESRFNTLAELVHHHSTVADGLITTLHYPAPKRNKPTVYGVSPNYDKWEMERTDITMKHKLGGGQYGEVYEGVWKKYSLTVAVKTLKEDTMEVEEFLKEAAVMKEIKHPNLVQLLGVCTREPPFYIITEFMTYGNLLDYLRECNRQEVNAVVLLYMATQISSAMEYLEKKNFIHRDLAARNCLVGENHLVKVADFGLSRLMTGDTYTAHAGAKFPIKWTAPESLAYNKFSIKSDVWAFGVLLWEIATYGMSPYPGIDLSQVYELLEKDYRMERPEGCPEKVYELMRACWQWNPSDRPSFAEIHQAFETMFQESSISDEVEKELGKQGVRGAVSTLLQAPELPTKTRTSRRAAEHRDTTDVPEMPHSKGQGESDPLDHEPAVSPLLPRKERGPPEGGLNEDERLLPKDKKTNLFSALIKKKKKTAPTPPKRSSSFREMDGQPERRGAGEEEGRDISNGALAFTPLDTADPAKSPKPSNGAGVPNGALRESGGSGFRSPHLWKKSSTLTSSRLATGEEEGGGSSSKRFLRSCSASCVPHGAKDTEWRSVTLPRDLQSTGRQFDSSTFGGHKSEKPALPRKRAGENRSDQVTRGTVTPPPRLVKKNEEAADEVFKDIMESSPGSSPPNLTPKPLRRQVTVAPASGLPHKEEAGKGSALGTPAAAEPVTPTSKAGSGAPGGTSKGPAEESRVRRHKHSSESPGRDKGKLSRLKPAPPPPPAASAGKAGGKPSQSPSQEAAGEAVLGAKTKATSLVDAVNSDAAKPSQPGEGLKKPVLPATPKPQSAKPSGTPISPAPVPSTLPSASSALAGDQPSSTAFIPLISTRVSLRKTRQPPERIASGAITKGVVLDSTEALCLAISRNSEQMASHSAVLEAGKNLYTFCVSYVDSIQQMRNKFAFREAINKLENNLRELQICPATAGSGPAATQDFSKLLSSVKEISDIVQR
# In short: as §1
# EphA3 (P29320) = target: T6, EphA3 (P29320) (Homo sapiens, UniProt P29320)
# T6 construct: purchased PamGene (PamChip PTK array, Upstream Kinase Analysis)
# T6 sequence (P29320 21-983): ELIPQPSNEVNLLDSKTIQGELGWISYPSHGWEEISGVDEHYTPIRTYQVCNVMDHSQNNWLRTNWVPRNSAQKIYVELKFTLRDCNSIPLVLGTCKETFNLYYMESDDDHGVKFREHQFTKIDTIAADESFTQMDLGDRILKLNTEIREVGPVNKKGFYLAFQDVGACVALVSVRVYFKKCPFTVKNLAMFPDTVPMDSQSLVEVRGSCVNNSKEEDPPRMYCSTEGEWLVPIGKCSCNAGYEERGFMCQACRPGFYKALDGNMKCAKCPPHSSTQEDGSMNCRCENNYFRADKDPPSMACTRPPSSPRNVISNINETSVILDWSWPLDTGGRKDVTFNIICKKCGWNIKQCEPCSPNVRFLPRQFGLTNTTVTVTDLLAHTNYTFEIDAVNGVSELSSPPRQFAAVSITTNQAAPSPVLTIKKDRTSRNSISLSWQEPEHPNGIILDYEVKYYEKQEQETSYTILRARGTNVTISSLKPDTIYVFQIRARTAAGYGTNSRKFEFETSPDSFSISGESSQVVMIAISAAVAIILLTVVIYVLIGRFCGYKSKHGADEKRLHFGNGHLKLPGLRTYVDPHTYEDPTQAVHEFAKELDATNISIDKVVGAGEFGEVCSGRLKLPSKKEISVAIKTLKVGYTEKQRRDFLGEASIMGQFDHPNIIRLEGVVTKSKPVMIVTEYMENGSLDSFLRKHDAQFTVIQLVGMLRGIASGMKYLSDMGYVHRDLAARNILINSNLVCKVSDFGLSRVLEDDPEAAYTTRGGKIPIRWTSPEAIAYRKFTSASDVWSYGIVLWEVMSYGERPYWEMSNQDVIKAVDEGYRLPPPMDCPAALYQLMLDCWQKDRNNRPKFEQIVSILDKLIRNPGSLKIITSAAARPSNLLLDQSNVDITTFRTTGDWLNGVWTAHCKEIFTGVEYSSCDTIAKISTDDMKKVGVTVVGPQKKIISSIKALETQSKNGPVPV
# In short: as §1
# T1 sequence (P42685 whole entry): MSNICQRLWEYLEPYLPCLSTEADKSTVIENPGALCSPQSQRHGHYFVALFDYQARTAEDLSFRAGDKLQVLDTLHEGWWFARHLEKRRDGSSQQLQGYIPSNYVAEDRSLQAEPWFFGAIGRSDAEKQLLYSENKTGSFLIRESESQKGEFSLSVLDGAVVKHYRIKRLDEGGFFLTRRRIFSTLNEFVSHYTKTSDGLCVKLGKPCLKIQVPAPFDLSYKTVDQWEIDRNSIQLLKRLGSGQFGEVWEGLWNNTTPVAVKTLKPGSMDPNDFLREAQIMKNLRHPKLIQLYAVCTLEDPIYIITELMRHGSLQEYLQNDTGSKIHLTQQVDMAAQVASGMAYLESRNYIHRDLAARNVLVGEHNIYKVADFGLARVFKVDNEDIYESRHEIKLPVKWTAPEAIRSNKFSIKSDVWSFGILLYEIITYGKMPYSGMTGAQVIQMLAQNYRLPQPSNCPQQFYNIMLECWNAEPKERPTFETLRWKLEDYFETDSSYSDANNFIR
compound,measurement,setting,value
"COc1ccc(/C=C2\N=C(C)N(c3ccc(CC(=O)NCc4ccccc4)cc3)C2=O)cc1 [Compound 4c, (Z)-N-Benzyl-2-(4-(4-(4-methoxybenzylidene)-2-methyl-5-oxo-4,5-dihydro-1H-imidazol-1-yl)phenyl)acetamide]",Mean Significance Score,FRK (P42685),2.048
same,Mean Specificity Score,FRK (P42685),1.533
same,Mean Final score (Kinase score),FRK (P42685); listed as KIM-161,3.45 and 3.453
same,Mean Final score (Kinase score),Fgr (P09769),2.293
same,Mean Kinase Statistic,Fgr (P09769),-1.161
same,Mean Significance Score,Fgr (P09769),1.8658
same,Mean Specificity Score,Fgr (P09769),0.2752
same,Mean Final score (Kinase score),DDR1 (Q08345),2.262
same,Mean Kinase Statistic,DDR1 (Q08345),-1.216
same,Mean Significance Score,DDR1 (Q08345),1.955
same,Mean Specificity Score,DDR1 (Q08345),0.3662
same,Mean Significance Score,Ron (Q04912),2.048
same,Mean Specificity Score,Ron (Q04912),0.9095
same,Mean Final score (Kinase score),Ron (Q04912); listed as KIM-161,2.96 and 2.957
same,Mean Final score (Kinase score),Abl (P00519),2.191
same,Mean Kinase Statistic,Abl (P00519),-1.128
same,Mean Significance Score,Abl (P00519),1.966
same,Mean Specificity Score,Abl (P00519),0.1837
same,Mean Final score (Kinase score),EphA3 (P29320),1.273
same,Mean Kinase Statistic,EphA3 (P29320),-0.7527
same,Mean Significance Score,EphA3 (P29320),1.23
same,Mean Specificity Score,EphA3 (P29320),0.04291
